# Results published in patent US5466671A, “Apidaecin-type peptide antibiotics with improved activities and/or different antibacterial spectrum” (priority 1994, dated 1995).
# Residues, ends and D or L forms follow the SMILES beside them.
# Key:
# [1] = system: Escherichia coli (ATCC11775); test: Inhibition zone assay (agar plate); assay type: cell-based; settings: for inhibition zone diameter (number of plus signs): agar plate, 50 nanomoles/well, 3 mm wells
# Enterobacter cloacae = test: Inhibition zone assay (agar plate); assay type: cell-based; settings: for inhibition zone diameter (number of plus signs): agar plate, 50 nanomoles/well, 3 mm wells
# Erwinia amylovora = test: Inhibition zone assay (agar plate); assay type: cell-based; settings: for inhibition zone diameter (number of plus signs): agar plate, 50 nanomoles/well, 3 mm wells
# Klebsiella pneumoniae = test: Inhibition zone assay (agar plate); assay type: cell-based; settings: for inhibition zone diameter (number of plus signs): agar plate, 50 nanomoles/well, 3 mm wells
# Salmonella typhimurium = test: Inhibition zone assay (agar plate); assay type: cell-based; settings: for inhibition zone diameter (number of plus signs): agar plate, 50 nanomoles/well, 3 mm wells
# Yersinia enterocolitica = test: Inhibition zone assay (agar plate); assay type: cell-based; settings: 50 nanomoles/well, 3 mm wells
# [2] = system: Acinetobacter calcoaceticus; test: Inhibition zone assay (agar plate); assay type: cell-based; settings: for inhibition zone diameter (number of plus signs): agar plate, 50 nanomoles/well, 3 mm wells
# [3] = system: Agrobacterium tumefaciens; test: Inhibition zone assay (agar plate); assay type: cell-based; settings: for inhibition zone diameter (number of plus signs): agar plate, 50 nanomoles/well, 3 mm wells
# Legionella pneumophila = assay type: cell-based; settings: agar plate, 50 nanomoles/well, 3 mm wells
# Pseudomonas syringae = test: Inhibition zone assay (agar plate); assay type: cell-based; settings: for inhibition zone diameter (number of plus signs): agar plate, 50 nanomoles/well, 3 mm wells
# Rhizobium meliloti = test: Inhibition zone assay (agar plate); assay type: cell-based; settings: 50 nanomoles/well, 3 mm wells
# Haemophilus influenzae = test: Inhibition zone assay (agar plate); assay type: cell-based; settings: 50 nanomoles/well, 3 mm wells
# E. coli Apid^R = test: Minimal inhibitory concentration (liquid culture); assay type: cell-based; settings: a-b = highest concentration with growth - lowest without growth
# Text: For details see `Experimental Procedures`.
# E. coli 11775 = test: Minimal inhibitory concentration (liquid culture); settings: for minimal inhibitory concentration (MIC): a-b = highest concentration with growth - lowest without growth
# E. coli 23802 = test: Minimal inhibitory concentration (liquid culture); settings: inoculum 5000 CFU/ml; a-b = highest concentration with growth - lowest without growth
# E. coli 25922 = test: Minimal inhibitory concentration (liquid culture); settings: inoculum 1100 CFU/ml; a-b = highest concentration with growth - lowest without growth
# S. typhimurium = test: Minimal inhibitory concentration (liquid culture); settings: inoculum 8 × 10^6 CFU/ml; a-b = highest concentration with growth - lowest without growth
# A. calcoaceticus = test: Minimal inhibitory concentration (liquid culture); settings: inoculum 16 × 10^6 CFU/ml; a-b = highest concentration with growth - lowest without growth
# M. morganii = test: Minimal inhibitory concentration (liquid culture); settings: inoculum 400 CFU/ml; a-b = highest concentration with growth - lowest without growth
# Y. enterocolitica = test: Minimal inhibitory concentration (liquid culture); settings: inoculum 5000 CFU/ml; a-b = highest concentration with growth - lowest without growth
# Morganella morganii = test: Inhibition zone assay (agar plate); assay type: cell-based; settings: 50 nanomoles/well, 3 mm wells
# Salmonella typhi = assay type: cell-based; settings: 50 nanomoles per well (3 mm diameter)
# Shigella dysenteriae = assay type: cell-based
# E. coli D22 = assay type: cell-based; settings: 50 nanomoles per well (3 mm diameter)
# Escherichia coli (K514) = assay type: cell-based; settings: agar plate, 50 nanomoles/well, 3 mm wells
# Campylobacter jejuni = test: Inhibition zone assay (agar plate); assay type: cell-based; settings: 50 nanomoles/well, 3 mm wells
# [4] = 50 nanomoles per well (3 mm diameter)
SMILES,inhibition zone diameter (number of plus signs) [1],inhibition zone diameter (number of plus signs) (Enterobacter cloacae),inhibition zone diameter (number of plus signs) (Erwinia amylovora),inhibition zone diameter (number of plus signs) (Klebsiella pneumoniae),inhibition zone diameter (number of plus signs) (Salmonella typhimurium),inhibition zone diameter (number of plus signs) (Yersinia enterocolitica),inhibition zone diameter (number of plus signs) [2],inhibition zone diameter (number of plus signs) [3],inhibition zone diameter (number of plus signs) (Pseudomonas syringae),inhibition zone diameter (number of plus signs) (Rhizobium meliloti),inhibition zone diameter (number of plus signs) (Haemophilus influenzae),minimal inhibitory concentration (MIC) (E. coli Apid^R; inoculum 1000 CFU/ml) [µg/mL],minimal inhibitory concentration (MIC) (E. coli 11775; inoculum 16 × 10^6 CFU/ml) [µg/mL],minimal inhibitory concentration (MIC) (E. coli 11775; inoculum 1200 CFU/ml) [µg/mL],minimal inhibitory concentration (MIC) (E. coli 23802) [µg/mL],minimal inhibitory concentration (MIC) (E. coli 25922) [µg/mL],minimal inhibitory concentration (MIC) (S. typhimurium) [µg/mL],minimal inhibitory concentration (MIC) (A. calcoaceticus) [µg/mL],minimal inhibitory concentration (MIC) (M. morganii) [µg/mL],minimal inhibitory concentration (MIC) (Y. enterocolitica) [µg/mL],also measured
CC[C@H](C)[C@H](NC(=O)[C@H](Cc1ccc(O)cc1)NC(=O)[C@@H](NC(=O)[C@@H]1CCCN1C(=O)[C@H](CCCNC(=N)N)NC(=O)[C@@H](N)CC(N)=O)C(C)C)C(=O)N1CCC[C@H]1C(=O)N1CCC[C@H]1C(=O)N1CCC[C@H]1C(=O)N[C@@H](CCCNC(=N)N)C(=O)N1CCC[C@H]1C(=O)N1CCC[C@H]1C(=O)N[C@@H](Cc1c[nH]cn1)C(=O)N1CCC[C@H]1C(=O)N[C@@H](CCCNC(=N)N)C(=O)N[C@@H](CC(C)C)C(=O)O [Bb-A] (H-NRPVYIPPPRPPHPRL-OH),++++ ((++++) 15-19 mm),+++ ((+++) 10-14 mm),++++ ((++++) 15-19 mm),++ ((++) 7-9 mm),+++ ((+++) 10-14 mm),+++ ((+++) 10-14 mm),++ ((++) 7-9 mm),++++ ((++++) 15-19 mm),++++ ((++++) 15-19 mm),+++++ ((+++++) 20 or more min),++ ((++) 7-9 mm),> 40,1 to 5,0.1 to 0.5,10 to 20,1 to 5,0.5 to 1,> 20,> 40,1 to 5,inhibition zone diameter (number of plus signs) (Legionella pneumophila): + ((+) 5-6 mm); minimal inhibitory concentration (MIC) (E. coli Apid^R; inoculum 12 × 10^6 CFU/ml): > 40 µg/mL
"CC(C)C[C@H](NC(=O)[C@H](CCCNC(=N)N)NC(=O)[C@@H]1CCCN1C(=O)[C@H](Cc1c[nH]cn1)NC(=O)[C@@H]1CCCN1C(=O)[C@@H]1CCCN1C(=O)[C@H](CCCNC(=N)N)NC(=O)[C@@H]1CCCN1C(=O)[C@@H]1CCCN1C(=O)[C@@H](NC(=O)[C@H](CCC(N)=O)NC(=O)[C@H](CCC(N)=O)NC(=O)[C@@H]1CCCN1C(=O)[C@H](CCCNC(=N)N)NC(=O)[C@@H]1CCCN1C(=O)[C@H](CCCCN)NC(=O)CN)C(C)C)C(=O)O [Ho +, G K P R P Q Q V P P R P P H P R L] (H-GKPRPQQVPPRPPHPRL-OH)",+++ ((+++) 10-14 mm),+++ ((+++) 10-14 mm),+++ ((+++) 10-14 mm),+++ ((+++) 10-14 mm),+++ ((+++) 10-14 mm),++++ ((++++) 15-19 mm),+ ((+) 5-6 mm),++ ((++) 7-9 mm),+++ ((+++) 10-14 mm),++++ ((++++) 15-19 mm),+++ ((+++) 10-14 mm),1 to 5,0.1 to 0.5,0.1 to 0.5,0.5 to 1,0.1 to 0.5,0.5 to 1,2 to 10,1 to 5,1 to 5,"Inhibition zones: in mm diameter [1, 4]: 15 mm; Inhibition zones: in mm diameter (Enterobacter cloacae; [4]): 15 mm; Inhibition zones: in mm diameter (Erwinia amylovora; [4]): 12 mm; Inhibition zones: in mm diameter (Klebsiella pneumoniae; [4]): 15 mm; inhibition zone diameter (number of plus signs) (Morganella morganii): ++ ((++) 7-9 mm); Inhibition zones: in mm diameter (Salmonella typhimurium; [4]): 14 mm; Inhibition zones: in mm diameter (Salmonella typhi): 20 mm; Inhibition zones: in mm diameter (Shigella dysenteriae; [4]): 18 mm; Inhibition zones: in mm diameter [2, 4]: 5 mm; Inhibition zones: in mm diameter [3, 4]: 12 mm; Inhibition zones: in mm diameter (Pseudomonas syringae; [4]): 13 mm; Inhibition zones: in mm diameter (E. coli D22): 14 mm; inoculum effect on inhibition of viability (E. coli 11775; inoculum sizes differing by four orders of magnitude): equally well"
CC[C@H](C)[C@H](NC(=O)[C@H](Cc1ccc(O)cc1)NC(=O)[C@@H](NC(=O)[C@@H]1CCCN1C(=O)[C@H](CCCNC(=N)N)NC(=O)[C@H](CC(N)=O)NC(=O)[C@H](C)N)C(C)C)C(=O)N1CCC[C@H]1C(=O)N1CCC[C@H]1C(=O)N1CCC[C@H]1C(=O)N[C@@H](CCCNC(=N)N)C(=O)N1CCC[C@H]1C(=O)N1CCC[C@H]1C(=O)N[C@@H](Cc1c[nH]cn1)C(=O)N1CCC[C@H]1C(=O)N[C@@H](CCCNC(=N)N)C(=O)N[C@@H](CC(C)C)C(=O)O [Bb+A] (H-ANRPVYIPPPRPPHPRL-OH),++++ ((++++) 15-19 mm),+++ ((+++) 10-14 mm),++++ ((++++) 15-19 mm),++ ((++) 7-9 mm),+++ ((+++) 10-14 mm),+++ ((+++) 10-14 mm),++ ((++) 7-9 mm),++++ ((++++) 15-19 mm),+++++ ((+++++) 20 or more min),++++ ((++++) 15-19 mm),+++ ((+++) 10-14 mm),> 40,0.5 to 1,0.05 to 0.1,10 to 20,0.5 to 1,0.5 to 1,2 to 10,20 to 40,5 to 10,"inhibition zone diameter (number of plus signs) (Shigella dysenteriae; agar plate, 50 nanomoles/well, 3 mm wells): + +++; inhibition zone diameter (number of plus signs) (Legionella pneumophila): ++ ((++) 7-9 mm); minimal inhibitory concentration (MIC) (E. coli Apid^R; inoculum 12 × 10^6 CFU/ml): > 40 µg/mL"
"CC[C@H](C)[C@H](NC(=O)[C@@H]1CCCN1C(=O)[C@H](C)NC(=O)[C@@H]1CCCN1C(=O)[C@H](CCCNC(=N)N)NC(=O)[C@@H]1CCCN1C(=O)[C@H](CCCCN)NC(=O)[C@H](CC(N)=O)NC(=O)[C@@H]1CCCN1C(=O)[C@H](CCCCN)NC(=O)CN)C(=O)N[C@@H](CCCCN)C(=O)N1CCC[C@H]1C(=O)N[C@@H](CCCNC(=N)N)C(=O)N1CCC[C@H]1C(=O)N1CCC[C@H]1C(=O)N[C@@H](Cc1c[nH]cn1)C(=O)N1CCC[C@H]1C(=O)N[C@@H](CCCNC(=N)N)C(=O)N[C@@H](CC(C)C)C(=O)O [Cd 2+, Gly--Lys--Pro--Asn--Lys--Pro--Arg--Pro--Ala--Pro--Ile--Lys--Pro--Arg--Pro--Pro--His--Pro--Arg--Leu] (H-GKPNKPRPAPIKPRPPHPRL-OH)",+++ ((+++) 10-14 mm),+++ ((+++) 10-14 mm),++ ((++) 7-9 mm),++ ((++) 7-9 mm),+++ ((+++) 10-14 mm),,+ ((+) 5-6 mm),+++ ((+++) 10-14 mm),+++ ((+++) 10-14 mm),++++ ((++++) 15-19 mm),++++ ((++++) 15-19 mm),0.5 to 1,0.1 to 0.5,0.1 to 0.5,0.1 to 0.5,0.1 to 0.5,0.1 to 0.5,10 to 20,1 to 5,10 to 20,"inhibition zone diameter (number of plus signs) (Escherichia coli (K514)): ++ ((++) 7-9 mm); inhibition zone diameter (number of plus signs) (Morganella morganii): ++ ((++) 7-9 mm); inhibition zone diameter (number of plus signs) (Campylobacter jejuni): +++++ ((+++++) 20 or more min); minimal inhibitory concentration (MIC) (E. coli Apid^R; inoculum 12 × 10^6 CFU/ml): 0.5 to 1.5 µg/mL; minimal inhibitory concentration (MIC) (E. coli Apid^R; inoculum 12 × 10^6 CFU/ml, listed as Cd2+): measurable activities"
